Experimental data reported in patent US20250127787A1, “METHODS FOR TREATING PERIPHERAL NEUROPATHY” (University of Pittsburgh - Of the Commonwealth System of …, priority 2021, published 2025).
Entries after “also recorded” stand apart in the source; their conditions may differ.

Key:
[1] = tested on: IBA-1; assay: Microglial IBA-1 expression and activation in CYP-CIPN rats; format: in vivo, rat; conditions: oral 8-AG; for effect on CYP-induced increase in IBA-1 expression (microglia): Western immunoblotting
Procedure: (§1) Animals: This study employed female Harlan Sprague Dawley (HSD) rats (3-4 mo; Envigo, Indianapolis, IN) and were divided into the following groups: 1) Control, 2) Cyclophosphamide (CYP, 75 mg/kg i.p. in saline vehicle; administered on days 0, 3 and 6 until sacrifice on day 8); 4) Paclitaxel (2 mg/kg i.p., 2 mg/kg i.p. in saline from a stock solution of 50/50 CremophorEL/ethanol); administered on days 0, 2, 4 and 6 until sacrifice on day 8; 4) 8-aminoguanine (8-AG; 5 mg/kg/day in drinking water; beginning 2 weeks prior to either CYP or PAC and continuing until sacrifice (day 8)). The dose of 8-AG was based on the experiments described above. […] All tissues (spinal cord and hindpaw epidermis) were removed from isoflurane anesthetized rats and the tissue was used for various experimental approaches as described below. At the end of tissue removal, animals were sacrificed by thoracotomy.
Thus, the effectiveness of 8-aminoguanine in CYP—CIPN microglial expression and activation was evaluated.

[2] = tested on: CD68; assay: CD68 expression in PAC-CIPN rat spinal cord, Western immunoblotting; format: in vivo; conditions: 8-AG 5 mg/kg/day in drinking water
Procedure: as §1, with “thoracotomy. […]” for “thoracotomy.”

Nc1nc2[nH]c(N)nc2c(=O)[nH]1 [8-AG, 8-Aminoguanine]
effect on CYP-induced increase in IBA-1 expression (microglia) [1]: normalized
effect on CYP-induced increase in IBA-1 expression (microglia) ([1]; listed as 8-aminoguanine): reversed; also recorded: normalized
effect on CYP-induced increase in spinal IBA-1 activation ([1]; measured by densitometry): normalized
effect on PAC-induced increase in CD68 expression [2]: significantly reduced
